Test results published in ChEMBL document CHEMBL4304757, “Synthetic heterocyclic candidates as promising α-glucosidase inhibitors: An overview” (Eur J Med Chem, 2019).

Experiments:
[1] = Inhibition of yeast alpha-glucosidase using p-nitrophenyl-alpha-d-glucopyranoside as substrate preincubated for 15 mins followed by substrate addition measured after 30 mins; set-up: species or system Saccharomyces cerevisiae
Alpha glucosidase [2] = molecular target: T1, Alpha glucosidase (Homo sapiens, UniProt O43451+P10253+P14410+Q2M2H8); assay: Inhibition of alpha-glucosidase (unknown origin) using p-nitrophenyl-alpha-d-glucopyranoside as substrate preincubated for 10 mins followed by substrate addition measured after 20 mins; format: protein assay
Alpha glucosidase [3] = molecular target: T1, Alpha glucosidase; assay: Inhibition of alpha-glucosidase (unknown origin) using p-nitrophenyl-alpha-d-glucopyranoside as substrate preincubated for 5 mins followed by substrate addition measured after 30 mins; format: protein assay
Alpha glucosidase [4] = molecular target: T1, Alpha glucosidase; assay: Potency index, ratio of acarbose IC50 to compound IC50 for inhibition of alpha-glucosidase (unknown origin) using p-nitrophenyl-alpha-d-glucopyranoside as substrate preincubated for 5 mins followed by substrate addition measured after 30 mins; format: protein assay
[5] = Inhibition of yeast alpha-glucosidase using p-nitrophenyl-alpha-d-glucopyranoside as substrate preincubated for 15 mins followed by substrate addition measured after 20 mins; set-up: species or system Saccharomyces cerevisiae
[6] = Inhibition of urease (unknown origin) assessed as reduction in ammonia production using urea as substrate after 15 mins by indophenol method
[7] = Inhibition of yeast alpha-glucosidase using p-nitrophenyl-alpha-d-glucopyranoside as substrate preincubated with enzyme followed by substrate addition measured after 30 mins; set-up: species or system Saccharomyces cerevisiae
Alpha glucosidase [8] = molecular target: T1, Alpha glucosidase; assay: Inhibition of alpha-glucosidase (unknown origin) using p-nitro phenyl glucopyranoside as substrate preincubated for 10 mins followed by substrate addition measured after 10 mins; format: protein assay
[9] = Inhibition of yeast alpha-glucosidase; set-up: species or system Saccharomyces cerevisiae
[10] = Inhibition of mouse alpha-glucosidase
Alpha glucosidase [11] = molecular target: T1, Alpha glucosidase; assay: Inhibition of alpha-glucosidase (unknown origin) using p-nitrophenyl-alpha-d-glucopyranoside as substrate preincubated for 30 mins followed by substrate addition measured for 60 secs by spectrophotometric analysis; format: protein assay
Alpha glucosidase [12] = molecular target: T1, Alpha glucosidase; assay: Inhibition of alpha-glucosidase (unknown origin) using p-nitrophenyl-alpha-d-glucopyranoside as substrate preincubated for 30 mins followed by substrate addition measured after 60 mins; format: protein assay
Alpha glucosidase [13] = molecular target: T1, Alpha glucosidase; assay: Competitive inhibition of alpha-glucosidase (unknown origin) using p-nitrophenyl-alpha-d-glucopyranoside as substrate preincubated for 10 mins followed by substrate addition measured after 20 mins; format: protein assay
Alpha glucosidase [14] = molecular target: T1, Alpha glucosidase; assay: Inhibition of alpha-glucosidase (unknown origin) using pNPG as substrate preincubated for 15 mins followed by substrate addition; format: protein assay
[15] = Inhibition of rat intestinal maltase-glucoamylase using p-nitrophenyl alpha-D-glucoside as substrate preincubated for 5 mins followed by substrate addition and measured after 30 mins
Alpha glucosidase [16] = molecular target: T1, Alpha glucosidase; assay: Inhibition of alpha-glucosidase (unknown origin) using p-nitro phenyl glucopyranoside as substrate preincubated for 5 mins followed by substrate addition measured after 30 mins; format: protein assay

c1ccc2c(c1)c1ccccc1n2Cc1cn(Cc2ccc(-c3ccc(Cn4cc(Cn5c6ccccc6c6ccccc65)nn4)cc3)cc2)nn1
IC50 [1]: 73 µM

COc1cc(C(c2c(N)c3ccccc3oc2=O)c2c(N)c3ccccc3oc2=O)cc(Br)c1O
IC50 (Alpha glucosidase [2]): 20 to 180 µM

Cc1cs/c(=N\C(=O)c2cccc3ccccc23)n1-c1cc(Cl)c(Cl)cc1Cl
IC50 (Alpha glucosidase [3]): 0.15 µM | Ratio IC50 (Alpha glucosidase [4]): 255

CN(C)c1ccc(-c2nc3ccc(N4CCOCC4)cc3[nH]2)cc1
IC50 [5]: 3.4 to 20 µM

Oc1ccc(-c2nc3ccc(Br)cc3[nH]2)cc1
IC50 [6]: 8.3 µM

CN1CCN(c2ccc3[nH]c(-c4ccc(O)cc4)nc3c2)CC1
IC50 [5]: 2.2 µM

CN1CCN(c2ccc3nc(-c4ccccn4)[nH]c3c2)CC1
IC50 [5]: 2.2 to 21 µM

Nc1c(C(c2ccccc2Cl)c2c(N)c3ccccc3oc2=O)c(=O)oc2ccccc12
IC50 (Alpha glucosidase [2]): 20 to 180 µM

CC1=NN(c2ccccc2)C(=O)/C1=C/c1cn(-c2ccccc2)nc1-c1cc2cc(Br)ccc2oc1=O
IC50 [7]: 2.1 to 289 µM

O=C(c1ccc(O)cc1)C1Cc2c(ccc3ccccc23)O1 (configuration not stated)
IC50 [1]: 6.5 µM

Oc1ccc(-c2nc3ccc(N4CCOCC4)cc3[nH]2)cc1O
IC50 [5]: 3.4 to 20 µM

COc1cccc(C(c2c(N)c3ccccc3oc2=O)c2c(N)c3ccccc3oc2=O)c1
IC50 (Alpha glucosidase [2]): 20 to 180 µM

O=C(O)CN1C(=O)S/C(=C/c2ccc(-n3ccc4c(Br)ccnc43)cc2)C1=O
IC50 (Alpha glucosidase [8]): 0.55 to 35 µM

Clc1ccc(-c2nc3ccc(N4CCOCC4)cc3[nH]2)cc1
IC50 [5]: 3.4 to 20 µM

COc1cc(-c2nc3ccc(N4CCOCC4)cc3[nH]2)ccc1O
IC50 [5]: 3.4 to 20 µM

COc1ccc(/C=C/C(=O)C2=C(/C=C/c3ccc(OC)c(O)c3)Oc3[nH]c(=O)[nH]c(=O)c3C2c2cc3ccccc3[nH]2)cc1O (configuration not stated)
IC50 [9]: 97 to 119 µM | IC50 [10]: 98 to 413 µM

Nc1c(C(c2ccc([N+](=O)[O-])cc2)c2c(N)c3ccccc3oc2=O)c(=O)oc2ccccc12
IC50 (Alpha glucosidase [2]): 20 to 180 µM

C(=N\Nc1nc(-c2ccc(-c3ccccc3)cc2)cs1)/c1cccc2ccccc12
IC50 (Alpha glucosidase [11]): 6.2 µM

Fc1ccc(-c2nc3ccc(N4CCOCC4)cc3[nH]2)cc1Br
IC50 [5]: 3.4 to 20 µM

COc1cc(C2C(C#N)=C(N)Oc3n[nH]c(C)c32)ccc1OCc1ccccc1 (configuration not stated)
IC50 [1]: 60 to 180 µM

O=C1NC(=O)/C(=C\c2ccc(-n3ccc4c(Nc5ccccc5OC(F)(F)F)ccnc43)cc2)S1
IC50 (Alpha glucosidase [8]): 0.55 to 35 µM

CC1=NN(c2ccc([N+](=O)[O-])cc2)C(=O)/C1=C/c1cn(-c2ccccc2)nc1-c1cc2ccccc2oc1=O
IC50 [7]: 2.1 to 289 µM

CN1CCN(c2ccc3nc(-c4ccc(Cl)cc4)[nH]c3c2)CC1
IC50 [5]: 2.2 to 21 µM

O=C1NC(=O)/C(=C\c2ccc(-n3ccc4c(Br)ccnc43)cc2)S1
IC50 (Alpha glucosidase [8]): 0.55 to 35 µM

Nc1c(C(c2ccccc2F)c2c(N)c3ccccc3oc2=O)c(=O)oc2ccccc12
IC50 (Alpha glucosidase [2]): 20 to 180 µM

O=C1NC(=O)/C(=C\c2ccc(-n3cc([N+](=O)[O-])cn3)cc2)S1
IC50 (Alpha glucosidase [8]): 0.55 to 35 µM

CN1CCN(c2ccc3nc(-c4ccc(N(C)C)cc4)[nH]c3c2)CC1
IC50 [5]: 2.2 to 21 µM

c1cncc(Cn2cc(Cn3c4ccccc4c4ccccc43)nn2)c1
IC50 [1]: 0.8 µM

CN1CCN(c2ccc3nc(-c4ccc(F)c(Br)c4)[nH]c3c2)CC1
IC50 [5]: 2.2 to 21 µM

CC1=NN(c2ccc(C)cc2)C(=O)/C1=C/c1cn(-c2ccccc2)nc1-c1ccc(-c2ccccc2)cc1
IC50 [7]: 2.1 to 289 µM

Clc1ccc(/N=c2\scc(-c3ccc(Cl)cc3)n2Nc2ccccc2)cc1
IC50 (Alpha glucosidase [12]): 9.6 µM

Cc1ccc(C(CC(=O)c2ccccc2)C(C(=O)Nc2ccccn2)C(=O)Nc2ccccn2)cc1 (configuration not stated)
IC50 [1]: 28 µM

Cc1ccc(C(c2c(N)c3ccccc3oc2=O)c2c(N)c3ccccc3oc2=O)cc1
Ki (Alpha glucosidase [13]): 22 µM | IC50 (Alpha glucosidase [2]): 20 µM

Cc1[nH]nc2c1C(c1ccccc1OCc1ccccc1)C(C#N)=C(N)O2 (configuration not stated)
IC50 [1]: 60 to 180 µM

Cc1nccn1-c1ccc(/C=C2/SC(=O)NC2=O)cc1
IC50 (Alpha glucosidase [8]): 0.55 to 35 µM

Cc1cccc2nc(-c3ccccc3Cl)[nH]c12
IC50 (Alpha glucosidase [14]): 5.3 µM

Cc1n[nH]c2c1C(c1ccc(Cl)cc1Cl)C(C#N)=C(N)O2 (configuration not stated)
IC50 [1]: 60 to 180 µM

O=c1oc2ccccc2cc1-c1nn(C(Nc2ccc(Oc3ccc(NC(c4cccc(Br)c4)n4nc(-c5cc6ccccc6oc5=O)oc4=S)cc3)cc2)c2cccc(Br)c2)c(=S)o1 (configuration not stated)
IC50 [15]: 0.04 µM | IC50 (Alpha glucosidase [16]): 0.07 µM
